Source: patent publication US7361633B2, “Screening method and anti-tumor drug candidate obtained therefrom” (Ardana Bioscience Limited, priority 2002, dated 2008)
“Also recorded” adds a separate entry of the source. Blank lines part the entries; values can stand above or below the molecule they belong to.

How the values were obtained:
p38α = experiment: Phosphorylation of immunoprecipitated myc-p38α in BPH-1 cells; format: cell-based, human; details: for activation (phosphorylation) of myc-p38α / effect of PTX pre-exposure on p38α activation: BPH-1 cells; for activation (phosphorylation) of myc-p38α: 100 nM; for effect of PTX pre-exposure on p38α activation: PTX 16 h 200 ng/ml
Experimental: The activation of two other forms of mitogen-activated protein kinase (MAPK) was studied in JEG-3 and BPH-1 cells by overexpressing myc-tagged constructs of JNK2 or p38α. Immunoprecipitation of these constructs after GnRHR-ligand stimulation of either cell line allowed the degree of kinase activation to be assessed using antisera specific for the active, phosphorylated, form of the kinase. […] In both panel a and b, the dose of GnRH I employed was 100 nM. The respective histograms in each panel represent the mean±s.e. mean of three experimental replicate time courses.
The histogram below depicts the mean±s.e. mean of three experimental replicates of the above western blot. […] The histograin below depicts the mean±s.e. mean of three experimental replicates of the above western blot.
Stimulation of JNK in JEG-3 cells and p38 in BPH-1 cells and its sensitivity to pre-exposure to PTX was assessed by measuring the degree of activating phosphorylation of immunoprecipitated myc-JNK2 or myc-p38α. […] The histograms in panels b and c depict the mean±s.e. mean of three experimental replicates of the above western blot (panel a) experiments. Panel d depicts an identical experiment to that in panel a except that it is the phosphorylation status of immunoprecipitated myc-p38α that is being measured. […] The histograms in panels e and f depict the mean±s.e. mean of three experimental replicates of the above western blot (panel d) experiments.
To further investigate the validity of the observed SAPK activation we transfected the tumour cell lines with myc-tagged JNK2 or p38α MAPK isoforms, stimulated the cells with GnRH and then immunoprecipitated with anti-myc sera and western blotted the immunoprecipitates for total JNK/p38 protein and active JNK/p38.

Type I GnRH receptor = molecular target: T1, Type I GnRH receptor (Rattus norvegicus, UniProt P30969); experiment: Inositol phosphate accumulation in SCL60 (HEK293) cells; format: cell-based; details: GnRH I 10 nM
T1 construct: expressed in transfected cells
T1 sequence (P30969 1-327): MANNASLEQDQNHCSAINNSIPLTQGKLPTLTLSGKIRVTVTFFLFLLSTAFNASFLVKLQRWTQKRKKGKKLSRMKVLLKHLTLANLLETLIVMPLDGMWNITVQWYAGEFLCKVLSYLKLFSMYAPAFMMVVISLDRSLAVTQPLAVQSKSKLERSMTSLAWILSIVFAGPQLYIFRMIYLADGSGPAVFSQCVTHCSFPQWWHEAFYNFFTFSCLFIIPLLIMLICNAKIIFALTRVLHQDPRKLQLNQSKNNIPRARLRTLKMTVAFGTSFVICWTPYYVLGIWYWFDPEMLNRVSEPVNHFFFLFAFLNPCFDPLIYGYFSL
Experimental: The histograms in panels a and b represent inositol phosphate accumulation data from HEK293 cells stably expressing the Type I GnRH receptor only (SCL60). […] In panels c and d, the liberated inositol phosphates generated were measured in the proto-gonadotrope cells (αT4) stably expressing the marmoset Type II GnRH receptor (designated αT4-II).
The ability of the four major agents under study at activating ectopically expressed Type I or Type II GnRHR were tested (FIG. 12). The classical signal transduction cascade activated by GnRHR stimulation is the Gαq-PLC-β cascade. Both Type I and II receptor can stimulate the Gαq-PLC type-G-protein and activate PLC-β which cleaves phosphatidylinositol bisphosphate (PIP2) into inositol trisphosphate (IP3), other lower inositol phosphates (IPn) and diacylglycerol (DAG). The major function of IP3 is to elevate intracellular Ca^2+ while DAG causes the activation of specific PKC (protein kinase C) isoforms.
Panels a and b of FIG. 12 depict the generation of free cytoplasmic ^3H-myo-inositols on the plasma membranes of HEK293 cells expressing the Type I GnRHR and of αT4 gonadotropes expressing the marmoset Type II GnRHR. Prior to agonist stimulation the respective cells were incubated in inositol-free growth media supplemented with 1 μCi/ml ^3H-myoinositol for 48 h. G protein coupled receptor (GPCR)-induced activation of PLC-β results in the cleavage of PIP2 (incorporating tritium ^3H) into free lower inositol phosphates (IPns).

Gαi-type G protein = experiment: Inhibition of forskolin-stimulated cAMP accumulation in BPH-1 cells; format: cell-based, human; details: for FSK-stimulated intracellular cAMP accumulation after ligand pre-exposure: 100 nM, pre-exposure 10, 30, 60 minutes; for effect of PTX on ligand-mediated inhibition of FSK-stimulated cAMP accumulation: 60 minute pre-exposure, PTX 200 ng/ml 16 h
Text: In both BPH-1 and JEG-3 cells GnRH and Ant 135-25 can antagonize forskolin (FSK) stimulated intracellular cAMP accumulation. Panels a and b respectively depict the effects of FSK, GnRH I and Ant 135-25 upon intracellular levels of cAMP in BPH-1 and JEG-3 cells measured using a calorimetric Biomol cAMP assay kit. […] Each histogram in panels a to d depicts the mean±s.e. mean of three to four experimental replicates of the cAMP accumulation assay.
Thus we noted that when cyclic adenosine monophosphate levels (cAMP) were measured using a commercially available […] assay system (Biomol) the ability of forskolin (1 μM in JEG-3 and 3 μM in BPH-1, sufficient to give a 50% Rmax response in each case) was blunted with extended cellular pre-treatment times (10 to 60 minutes) with either 100 nM GnRH I or Ant 135-25 (FIG. 9, panel a-BPH, panel b-JEG). […] Therefore it appears that both ligands can efficiently activate the adenylate cyclase inhibitory activity of Gαi in both cell models tested.

[1] = test system: HEK293 cells stably expressing the Type I GnRHR (SCL60); experiment: Anti-proliferative effect on SCL60 cells, viable cell count after 5 days; format: cell-based, human; details: 5 days continuous treatment, trypan blue exclusion
Experimental: An identical methodology of measuring cell growth was employed as in FIG. 1.
Each cell type was plated at an initial minimal confluency (10-20%) to allow for 5 days of normal continual cell growth that would not result in 100% cell confluency by day 5. Each ligand was incubated, in triplicate for every experimental concentration, with the cell monolayers for five days with replacement of the ligand every 12 h. At the end of the stimulation period the number of viable cells was estimated by their capacity to prevent uptake of Trypan Blue stain.
We further investigated the nature of the ligand-receptor specificity of the anti-proliferative effects of GnRH receptor systems by studying our ligand panel effects upon a model cell background, i.e. SCL60 HEK293 cells stably expressing the rat Type I GnRHR. […] We attribute this greater effect of the GnRHR ligands upon the SCL60 cells to the much greater level of receptor expression in the SCL60 cells.

Molecule: C[S+]([O-])c1ccc(-c2nc(-c3ccncc3)c(-c3ccc(F)cc3)[nH]2)cc1 (stereo not drawn) [SB203580]
effect on GnRH-mediated activation of p38α (p38α): significantly blunted the GnRH-mediated activation of p38α

agonistic activity: liberated inositol phosphates at Type I GnRH receptor (Type I GnRH receptor; listed as 135-25): no IPn-generating capacity
Molecule: Ac-D-Nal(2)-D-4-ClPhe-D-Pal-Ser-1-MePal-D-IsopropylLys-Leu-IsopropylLys-Pro-D-AlaNH2 [Ant 135-25]
agonistic activity: liberated inositol phosphates at Type I GnRH receptor (Type I GnRH receptor): no classical agonistic activity is demonstrated | agonistic activity: liberated inositol phosphates at Type I GnRH receptor (Type I GnRH receptor; listed as Ant135-25): demonstrate no partial agonistic activity | agonistic activity: liberated inositol phosphates at Type I GnRH receptor (Type I GnRH receptor; listed as antagonist 135-25): failed to generate significant free inositol phosphate | FSK-stimulated intracellular cAMP accumulation after ligand pre-exposure (Gαi-type G protein): significantly reduced; also recorded: blunted | effect of PTX on ligand-mediated inhibition of FSK-stimulated cAMP accumulation (Gαi-type G protein): can be specifically inhibited with a 16 h pre-incubation of the cells with 200 ng/ml of PTX; also recorded: attenuated by a 16 h pre-treatment with 200 ng/ml PTX | anti-proliferative effect (viable cell number) [1]: greater anti-proliferative efficacy | anti-proliferative effect (viable cell number) ([1]; listed as Ant135-25): nearly an as efficacious action as either GnRH I or GnRH II | activation (phosphorylation) of myc-p38α (p38α): effectively activate p38α | effect of PTX pre-exposure on p38α activation (p38α): acutely sensitive to the pre-exposure of PTX

agonistic activity: liberated inositol phosphates at Type I GnRH receptor (Type I GnRH receptor): little classical agonistic capacity
Molecule: Ac-D-Nal(2)-D-4-ClPhe-D-Pal-Ser-Ile-D-IsopropylLys-Leu-IsopropylLys-Pro-D -AlaNH2 [Ant 135-18]
agonistic activity: liberated inositol phosphates at Type I GnRH receptor (Type I GnRH receptor; listed as 135-18): no activation of the PLC-β signal at the Type I receptor evident | agonistic activity: liberated inositol phosphates at Type I GnRH receptor (Type I GnRH receptor; listed as Ant135-18): demonstrate no partial agonistic activity | anti-proliferative effect (viable cell number) [1]: low efficacy compared to the other ligands | anti-proliferative effect (viable cell number) ([1]; listed as Ant135-18): relatively ineffective at inhibiting the SCL60 cell proliferation | activation (phosphorylation) of myc-p38α (p38α): does not | activation (phosphorylation) of myc-p38α (p38α; listed as Ant135-18): dramatically lower efficacy than GnRH I or Ant 135-25

Molecule: GnRH I: Gonadotropin-Releasing Hormone, a decapeptide; the original form of GnRH, re-named GnRH I
agonistic activity: liberated inositol phosphates at Type I GnRH receptor (Type I GnRH receptor): yields an increase in free tritiated inositol phosphates; also recorded: significant increase in liberated inositol phosphates | FSK-stimulated intracellular cAMP accumulation after ligand pre-exposure (Gαi-type G protein): significantly reduced; also recorded: blunted | effect of PTX on ligand-mediated inhibition of FSK-stimulated cAMP accumulation (Gαi-type G protein): can be specifically inhibited with a 16 h pre-incubation of the cells with 200 ng/ml of PTX; also recorded: attenuated by a 16 h pre-treatment with 200 ng/ml PTX | anti-proliferative effect (viable cell number) [1]: greater anti-proliferative efficacy; also recorded: dramatic reduction in the cells growth rate and significant loss of total cell number | activation (phosphorylation) of myc-p38α (p38α): significant activation of myc-p38α; also recorded: effectively activate p38α; also recorded: protracted activation of the immunoprecipitated myc-p38α | effect of PTX pre-exposure on p38α activation (p38α): acutely sensitive to the pre-exposure of PTX
